The text below walks through data of patent publication US20250084371A1, “CELL MONOLAYER BLOCKING AGENTS AND USES THEREOF” (LUMICKS CA HOLDING B.V., priority 2021, published 2025).

Series [1] concerns Raji cells. As to the kind of experiment: Avidity of UNT or FMC63-CAR primary T cells to Raji covalent monolayer on PLL-coated chips. The format is cell-based. To be noted: 10 mM crosslinker, mean n=2. The procedure: Untransduced or FMC63-transduced primary CAR T cells were obtained from ProMab Biotechnologies Inc. (Anti-CD19-TF-CD28-CD3z (PMC-152)) propagated with […] CD3/CD28 dynabeads (Thermo Fisher Scientific) and 90 IU/mL of IL-2 (Miltenyi Biotec). Raji cells were used as target cells. Primary CAR-T cells were cultured in RPMI+Glutamax supplemented with 50 μM β-Mercaptoethanol, 5% heat inactivated human serum, and Penicillin-Streptomycin.
z-Movi® chips (obtained and as available from LUMICKS) were coated with Poly-L-Lysine (#P4707-50ML, Sigma) diluted 1:5 in PBS for 10 minutes at room temperature. The following day the target cells were seeded in PBS, incubated 0.75 h, and subsequently the monolayers were left untreated or reacted with BS(PEG)9. For negative control the PLL coated chips were reacted with 5 mM MS(PEG)4 before seeding the Raji cells. The effector cells were stained with CellTrace™ Far Red dye (Thermo Fisher […] Scientific) at 1 μM for 15 minutes in PBS at 37° C., then resuspended at 10 million/mL in complete medium and used for the avidity experiments. The stained effector cells (i.e. cells of interest) were introduced in the target cell-seeded flow cell, incubated for 5 minutes, and then a 1 to 1000 pN force ramp was applied throughout 2.5 minutes using z-Movi® operated with the Oceon® V1.2 software. […]

For another series, the system named is CD69 activation marker. In words: CD69 activation assay, Jurkat co-incubated with blocked Raji cells. The format is cell-based. To be noted: 1:1, 4 h. The procedure:
Target cells were treated with DMSO or blocking agent using the protocol above, resuspended at 1 million/mL in RPMI complete medium and mixed at 1:1 ratio with the indicated effector cells. For the IFNγ release assay the samples were incubated for 7 h in the incubator before spinning down and use of the supernatant to perform the ELISA (Biolegend, ELISA MAX™ Deluxe Set Human IFNγ). […]

The test system of series [2] is Raji cells. In words: Monolayer integrity/viability (Trypan Blue) of Raji seeded PLL-coated chips after blocking. The format is cell-based. To be noted: Raji on PLL, vs DMSO vehicle. The procedure: (§1) z-Movi® chips (obtained and as available from LUMICKS (<https://lumicks.com/products/z-movi-cell-interaction-studies/>) were coated with Poly-L-Lysine (#P4707-50ML, Sigma) diluted 1:5 in PBS for 10 minutes at room temperature, or with human Fibronectin (#F0895, Sigma) at 0.1 mg/mL overnight at room temperature. The following day the target cells were seeded in serum free RPMI medium, incubated 1 h, and subsequently the medium replaced with complete RPMI medium. The chips were incubated for an additional hour before the blocking reaction. The effector cells were stained with CellTrace™ Far Red dye (Thermo Fisher Scientific) at 1 μM for 15 minutes in PBS at 37° C., then resuspended at 10 million/mL in complete medium and used for the avidity experiments. The stained effector cells (i.e. cells of interest) were introduced in the target cell-seeded flow cell, incubated for 5 minutes, and then a 1 to 1000 pN force ramp was applied throughout 2.5 minutes using z-Movi® operated with the Oceon V1.2 software. At the end of the avidity measurements, the monolayer was stained with a Trypan Blue solution to qualitatively assess the target cell viability. The avidity experiment analysis was performed using Oceon V1.2. […]

A further series concerns PLL-coated chips. As to the kind of experiment: Binding of Jurkat cells to PLL-coated chips after blocking (z-Movi avidity, no target cells). The format is cell-based. On the procedure:
as §1

Series [3] deals with Raji cells. As to the kind of experiment: Avidity of UNT or FMC63-CAR primary T cells to Raji seeded PLL-coated chips after blocking. The format is cell-based. On the procedure: Untransduced or FMC63-transduced primary CAR T cells were obtained from ProMab Biotechnologies Inc. (Anti-CD19-TF-CD28-CD3z (PMC-152)) propagated with CD3/CD28 dynabeads (Thermo Fisher Scientific) and 90 IU/mL of IL-2 (Miltenyi Biotec), or Untransduced or FMC63 CAR transduced Jurkat were used (Creative Biolabs).
(§2) z-Movi® chips (obtained and as available from LUMICKS (<https://lumicks.com/products/z-movi-cell-interaction-studies/>) were coated with Poly-L-Lysine (#P4707-50ML, Sigma) diluted 1:5 in PBS for 10 minutes at room temperature, or with human Fibronectin (#F0895, Sigma) at 0.1 mg/mL overnight at room temperature. The following day the target cells were seeded in serum free RPMI medium, incubated 1 h, and subsequently the medium replaced with complete RPMI medium. The chips were incubated for an additional hour before the blocking reaction. The effector cells were stained with CellTrace™ Far Red dye (Thermo Fisher Scientific) at 1 μM for 15 minutes in PBS at 37° C., then resuspended at 10 million/mL in complete medium and used for the avidity experiments. The stained effector cells (i.e. cells of interest) were introduced in the target cell-seeded flow cell, incubated for 5 minutes, and then a 1 to 1000 pN force ramp was applied throughout 2.5 minutes using z-Movi® operated with the Oceon V1.2 software. At the end of the avidity measurements, the monolayer was stained with a Trypan Blue solution to qualitatively assess the target cell viability. The avidity experiment analysis was performed using Oceon V1.2.
(§3) The MS(PEG)4 or BS(PEG)5 (Thermo Fisher Scientific) (see FIG. 2) were dissolved in anhydrous DMSO (Merck) then diluted in PBS to obtain a final concentration of 5 mM or as otherwise indicated. The target cell-seeded chips (or coated only with PLL or fibronectin) were rinsed with PBS before introducing the blocking solution (or a PBS solution with DMSO as control sample). The chips were incubated for 15 minutes at room temperature and the reaction was stopped with TBS (50 mM Tris pH7.4, 150 mM NaCl). The chips were subsequently equilibrated with complete medium and used for avidity measurements. Furthermore, blocking was also tested with incubations of 1 hour with serum free RPMI medium, 20% fetal bovine serum (FBS), 50% FBS, 50% human serum (HS), 10% bovine serum albumin (BSA), NALM6 condition medium.
We then performed the experiments with the blocking agents with primary T cells expressing a FMC63 CAR (or not) layered on Raji cells. We observed that the observations made with Jurkat cells were recapitulated showing a considerable improvement of the negative/positive window on the chips subjected to the blocking reaction (FIG. 7).

In the next series the test system is IFNγ. As to the kind of experiment: IFNγ release assay (ELISA), primary T cells co-incubated with blocked Raji cells. The format is cell-based, human. To be noted: 1:1, 7 h. On the procedure: Target cells were treated with DMSO or blocking agent using the protocol above, resuspended at 1 million/mL in RPMI complete medium and mixed at 1:1 ratio with the indicated effector cells. For the IFNγ release assay the samples were incubated for 7 h in the incubator before spinning down and use of the supernatant to perform the ELISA (Biolegend, ELISA MAX™ Deluxe Set Human IFNγ). For the CD69 assay, the target and effector cells prepared as described above were co-incubated for 5 h in the incubator before being stained using anti-CD3 and anti-CD69 antibodies (clone SK7 and FN50, Biolegend).
In general terms: An ELISA detects its analyte on a solid surface through an enzyme-linked reagent.

Series [4] concerns human fibronectin-coated chips. As to the kind of experiment: Binding of Jurkat cells to human fibronectin-coated chips after blocking (z-Movi avidity, no target cells). The format is cell-based. On the procedure: as §1
In series [5] the test system is Raji cells. In words: Avidity of UNT or FMC63-CAR Jurkat cells to Raji seeded PLL-coated chips after blocking. The format is cell-based. To be noted: for percentage of effector cells bound to the target cells at the end of the force ramp (1000 pN) / difference in the positive/negative window: PLL; for percentage of effector cells bound to the target cells at the end of the force ramp (1000 pN): mean n=2; for difference in the positive/negative window: CAR minus UNT bound at 1000 pN, Raji; for binding of the CAR sample (cells bound) after blocking: FMC63 CAR Jurkat, from about 80% without blocking; for binding of the CAR sample (cells bound) after blocking / background binding of the UNT sample (cells bound) after blocking: Raji-seeded PLL chips; for background binding of the UNT sample (cells bound) after blocking: UNT Jurkat, from about 50% without blocking. On the procedure:
as §2, §3
We next validated the use of NHS-based blockers to reduce background binding of the effector cells in the presence of the monolayer. We used as cells of interest a Jurkat cell line transduced to express the FMC63 Chimeric Antigen Receptor (CAR) or untransduced (UNT) as control cells. As target cells we used the Raji cell line, endogenously expressing the CD19 antigen, seeded on PLL coated chips.

Series [6] concerns Hela-CD19 cells. In words: Avidity of UNT or FMC63-CAR Jurkat to Hela-CD19 seeded fibronectin-coated chips after blocking. To be noted: Hela-CD19 on human fibronectin, blocker 5 mM; for percentage of effector cells bound to the target cells at the end of the force ramp (1000 pN): mean n=2. The format is cell-based. The procedure:
as §2
as §3, with “medium. […]” for “medium.”

The test system of series [7] is Hela-CD19 cells. As to the kind of experiment: Avidity of UNT or FMC63-CAR Jurkat to Hela-CD19 seeded PLL-coated chips after blocking. The format is cell-based. Particulars: Hela-CD19 on PLL, blocker 5 mM; for percentage of effector cells bound to the target cells at the end of the force ramp (1000 pN): mean n=2. On the procedure: as §2
as §3, with “medium. […]” for “medium.”

Setting [8] is: CAR Jurkat + Raji treated with 5 mM blocker 15 minutes.
The mark [9] stands for this setting: UNT Jurkat + Raji treated with 5 mM blocker 15 minutes.

Take `O=C(CCOCCOCCOCCOCCOCCOCCOCCOCCOCCC(=O)ON1C(=O)CCC1=O)ON1C(=O)CCC1=O` [BS(PEG)9]: the figures for the “percentage of effector cells bound to the target cells at the end of the force ramp (1000 pN)” value (shortened to “percentage of effector cells bound”) in the series with Raji cells [1] (CAR primary T cells + Raji) and in the series with Raji cells [1] (UNT primary T cells + Raji) were 61.4% and 10.3%, respectively.

Consider `O=C(CCOCCOCCOCCOCCOCCC(=O)ON1C(=O)CCC1=O)ON1C(=O)CCC1=O` [BS(PEG)5], for which the “percentage of CD69 positive cells” value worked out at 30% in the series with CD69 activation marker (setting [8]) and 0.6% in the series with CD69 activation marker (setting [9]). Moreover, the “monolayer integrity (confluency, cell morphology, staining)” value in the series with Raji cells [2] (blocker 4.5 mM) is given as “No differences in target cell monolayer confluency, cell morphology or staining could be detected”. Further, the results for the “percentage of Jurkat cells bound at the end (1000 pN) of the avidity measurement” value in the series with PLL-coated chips (blocking agent 1 mM) and with PLL-coated chips (blocking agent 5 mM) were 92.9% and 1.2%, respectively. For the same molecule, the “percentage of effector cells bound” value in the series on Raji cells [3] (CAR primary T cells + Raji, blocker 4.5 mM, mean n=2 (FIG. 7A)) amounted to 66.3%; with Raji cells [3] (UNT primary T cells + Raji, blocker 4.5 mM, mean n=2 (FIG. 7A)), 39.9%; in the series on Raji cells [5] (CAR (FMC63-transduced) effector cells + Raji, blocker 4.5 mM), 78.3%; in the series with Raji cells [5] (UNT (untransduced) effector cells + Raji, blocker 4.5 mM), 15.6%. The “amount of IFNγ in co-culture supernatants” value was found to be 1633 pg/mL in the series on IFNγ (CAR primary T cells + Raji treated with 4.5 mM blocker 15 minutes) and 11 pg/mL with IFNγ (UNT primary T cells + Raji treated with 4.5 mM blocker 15 minutes). Moreover, the “percentage of bound Jurkat cells at the end of the force ramp (1000 pN)” value in series [4] (blocking agent 1 mM) was 52.8%; in series [4] (blocking agent 5 mM), 43.2%. Further, the “difference in the positive/negative window” value in the series on Raji cells [5] (blocker 4.5 mM) turned out to be 62.7%. Moreover, in the series on Raji cells [5], the “binding of the CAR sample (cells bound) after blocking” value is “about 70%”. Further, the “background binding of the UNT sample (cells bound) after blocking” value in the series on Raji cells [5] is recorded as “about 20%”.

With `COCCOCCOCCOCCC(=O)ON1C(=O)CCC1=O` [MS(PEG)4], the “percentage of CD69 positive cells” value in the series with CD69 activation marker (setting [8]) was found to be 27%; in the series on CD69 activation marker (setting [9]), 0.8%. The “percentage of effector cells bound” value in the series with Hela-CD19 cells [6] (CAR Jurkat) was found to be 70.1%; with Hela-CD19 cells [6] (UNT Jurkat), 16.8%; with Raji cells [3] (CAR primary T cells + Raji, mean n=3 (FIG. 7B)), 67.8%; with Raji cells [3] (UNT primary T cells + Raji, mean n=3 (FIG. 7B)), 42.6%; in the series on Hela-CD19 cells [7] (CAR Jurkat), 68%; in the series on Hela-CD19 cells [7] (UNT Jurkat) it was 5%. The “percentage of effector cells bound” value is 84.7% in the series with Raji cells [5] (CAR (FMC63-transduced) effector cells + Raji, blocker 5 mM) and 32.8% in the series with Raji cells [5] (UNT (untransduced) effector cells + Raji, blocker 5 mM). The “pos/neg window after the blocking reaction” value with Hela-CD19 cells [6] (control window 33.3%) amounted to 53.3%; with Hela-CD19 cells [7] (control window 49.4%) it was 63%. Besides, the “monolayer integrity (confluency, cell morphology, staining)” value in the series with Raji cells [2] (blocker 5 mM) is on record as “No differences in target cell monolayer confluency, cell morphology or staining could be detected”. The “difference in the positive/negative window” value in the series with Raji cells [5] (blocker 5 mM) stood at 51.9%. The “binding of the CAR sample (cells bound) after blocking” value in the series with Raji cells [5] is given as “about 70%”. In addition, the “background binding of the UNT sample (cells bound) after blocking” value in the series on Raji cells [5] is “about 20%”.
